From patent US5747535A, “Selective thrombin inhibitors” (priority 1995, dated 1998)
Like-named read-outs stand apart in the source and are kept apart here.

Columns and labels:
[1] = Test 2: Pharmacokinetic test in rats; type: in vivo, rat; details: for concentration at 0.05 h: 3 min; for concentration at 0.5 h: 30 min; for concentration at 0.75 h: 45 min; for concentration at 1 h: 60 min; for concentration at 1.5 h: 90 min; for concentration at 2 h: 120 min; for concentration at 3 h: 180 min; for bioavailability: oral route
Protocol: (§1) Male rats and dogs were fasted for 24 hours and used as the experimental animals. […] Bloods were collected from the animals at given time intervals and then immediately mixed with methanol and zinc sulfate. Finally, the upper layer of the mixture was quantitatively analyzed at ultraviolet wavelength of 231 nm to measure the drug concentration in blood by HPLC.

[2] = Test 2: Pharmacokinetic test in dogs; type: in vivo, dog; details: for concentration at 2 min / concentration at 5 min / concentration at 10 min / concentration at 20 min / concentration at 0.5 h / concentration at 0.75 h / concentration at 1 h / concentration at 1.5 h / concentration at 2 h / concentration at 4 h / concentration at 5 h / concentration at 6 h / concentration at 3 h: 10 mg/kg; for concentration at 0.5 h: 30 min; for concentration at 0.75 h: 45 min; for concentration at 1 h: 60 min; for concentration at 1.5 h: 90 min; for concentration at 2 h: 120 min; for concentration at 4 h: 240 min; for concentration at 5 h: 300 min; for concentration at 6 h: 360 min; for concentration at 3 h: 180 min; for bioavailability: oral route
Protocol: as §1

[3] = rat, blood, iv, 10 mg/kg, Rat-1, i.v. 10 mg/kg, read-out: Blood concentration
[4] = rat, blood, iv, 10 mg/kg, Rat-2, i.v. 10 mg/kg, read-out: Blood concentration
[5] = rat, blood, iv, 10 mg/kg, Rat-3, i.v. 10 mg/kg, read-out: Blood concentration
[6] = rat, blood, iv, 10 mg/kg, rats, i.v. 10 mg/kg, read-out: Blood concentration, Average(+error)
[7] = rat, blood, po, 15 mg/kg, Rat-1, oral 15 mg/kg, read-out: Blood concentration
[8] = rat, blood, po, 15 mg/kg, Rat-2, oral 15 mg/kg, read-out: Blood concentration
[9] = rat, blood, po, 15 mg/kg, Rat-3, oral 15 mg/kg, read-out: Blood concentration
[10] = rat, blood, po, 15 mg/kg, rats, oral 15 mg/kg, read-out: Blood concentration, Average(+error)
[11] = dog, blood, iv, Dog-1, i.v. 10 mg/kg, read-out: Blood concentration
[12] = dog, blood, iv, Dog-2, i.v. 10 mg/kg, read-out: Blood concentration
[13] = dog, blood, iv, dogs, i.v. 10 mg/kg, read-out: Blood concentration, Average(+error)
[14] = dog, blood, po, Dog-1, oral 10 mg/kg, read-out: Blood concentration
[15] = dog, blood, po, Dog-2, oral 10 mg/kg, read-out: Blood concentration
[16] = dog, blood, po, dogs, oral 10 mg/kg, read-out: Blood concentration, Average(+error)

concentration at 1 min [1, 3]: 31500 ng/mL
concentration at 0.05 h [1, 3]: 8100 ng/mL
concentration at 5 min [1, 3]: 3980 ng/mL
concentration at 10 min [1, 3]: 1910 ng/mL
concentration at 20 min [1, 3]: 918 ng/mL
concentration at 0.5 h [1, 3]: 631 ng/mL
concentration at 0.75 h [1, 3]: 355 ng/mL
concentration at 1 h [1, 3]: 270 ng/mL
concentration at 1.5 h [1, 3]: 168 ng/mL
concentration at 2 h [1, 3]: 76 ng/mL
concentration at 3 h [1, 3]: 87 ng/mL
concentration at 1 min [1, 4]: 23000 ng/mL
concentration at 0.05 h [1, 4]: 6770 ng/mL
concentration at 5 min [1, 4]: 3070 ng/mL
concentration at 10 min [1, 4]: 1830 ng/mL
concentration at 20 min [1, 4]: 898 ng/mL
concentration at 0.5 h [1, 4]: 600 ng/mL
concentration at 0.75 h [1, 4]: 408 ng/mL
concentration at 1 h [1, 4]: 242 ng/mL
concentration at 1.5 h [1, 4]: 166 ng/mL
concentration at 2 h [1, 4]: 97 ng/mL
concentration at 3 h [1, 4]: 73 ng/mL
concentration at 1 min [1, 5]: 32000 ng/mL
concentration at 0.05 h [1, 5]: 7880 ng/mL
concentration at 5 min [1, 5]: 4220 ng/mL
concentration at 10 min [1, 5]: 1930 ng/mL
concentration at 20 min [1, 5]: 883 ng/mL
concentration at 0.5 h [1, 5]: 591 ng/mL
concentration at 0.75 h [1, 5]: 398 ng/mL
concentration at 1 h [1, 5]: 289 ng/mL
concentration at 1.5 h [1, 5]: 184 ng/mL
concentration at 2 h [1, 5]: 119 ng/mL
concentration at 3 h [1, 5]: 78 ng/mL
concentration at 1 min [1, 6]: 28800 ng/mL
concentration at 0.05 h [1, 6]: 7590 ng/mL
concentration at 5 min [1, 6]: 3760 ng/mL
concentration at 10 min [1, 6]: 1890 ng/mL
concentration at 20 min [1, 6]: 900 ng/mL
concentration at 0.5 h [1, 6]: 607 ng/mL
concentration at 0.75 h [1, 6]: 387 ng/mL
concentration at 1 h [1, 6]: 267 ng/mL
concentration at 1.5 h [1, 6]: 173 ng/mL
concentration at 2 h [1, 6]: 97 ng/mL
concentration at 3 h [1, 6]: 79 ng/mL
concentration at 5 min [1, 7]: 1610 ng/mL
concentration at 10 min [1, 7]: 1480 ng/mL
concentration at 20 min [1, 7]: 569 ng/mL
concentration at 0.5 h [1, 7]: 232 ng/mL
concentration at 0.75 h [1, 7]: 145 ng/mL
concentration at 1 h [1, 7]: 143 ng/mL
concentration at 1.5 h [1, 7]: 66 ng/mL
concentration at 2 h [1, 7]: 34 ng/mL
concentration at 3 h [1, 7]: 24 ng/mL
concentration at 5 min [1, 8]: 822 ng/mL
concentration at 10 min [1, 8]: 686 ng/mL
concentration at 20 min [1, 8]: 166 ng/mL
concentration at 0.5 h [1, 8]: 82 ng/mL
concentration at 0.75 h [1, 8]: 107 ng/mL
concentration at 1 h [1, 8]: 123 ng/mL
concentration at 1.5 h [1, 8]: 186 ng/mL
concentration at 3 h [1, 8]: 238 ng/mL
concentration at 5 min [1, 9]: 570 ng/mL
concentration at 10 min [1, 9]: 384 ng/mL
concentration at 20 min [1, 9]: 97 ng/mL
concentration at 0.5 h [1, 9]: 113 ng/mL
concentration at 0.75 h [1, 9]: 112 ng/mL
concentration at 1 h [1, 9]: 110 ng/mL
concentration at 1.5 h [1, 9]: 119 ng/mL
concentration at 2 h [1, 9]: 71 ng/mL
concentration at 3 h [1, 9]: 64 ng/mL
concentration at 5 min [1, 10]: 1000 ng/mL
concentration at 10 min [1, 10]: 850 ng/mL
concentration at 20 min [1, 10]: 255 ng/mL
concentration at 0.5 h [1, 10]: 143 ng/mL
concentration at 0.75 h [1, 10]: 121 ng/mL
concentration at 1 h [1, 10]: 125 ng/mL
concentration at 1.5 h [1, 10]: 124 ng/mL
concentration at 2 h [1, 10]: 53 ng/mL
concentration at 3 h [1, 10]: 109 ng/mL
bioavailability ([1]; rat, blood, rats, read-out: Bioavailability): 15%
half-life ([1]; rat, blood, rats, read-out: Elimination Half-life, Average + (error)): 0.783 h
bioavailability ([1]; rats): 15 (2) %
concentration at 2 min [2, 11]: 29100 ng/mL
concentration at 5 min [2, 11]: 9080 ng/mL
concentration at 10 min [2, 11]: 5940 ng/mL
concentration at 20 min [2, 11]: 3610 ng/mL
concentration at 0.5 h [2, 11]: 2430 ng/mL
concentration at 0.75 h [2, 11]: 1940 ng/mL
concentration at 1 h [2, 11]: 1470 ng/mL
concentration at 1.5 h [2, 11]: 1270 ng/mL
concentration at 2 h [2, 11]: 1090 ng/mL
concentration at 4 h [2, 11]: 544 ng/mL
concentration at 5 h [2, 11]: 315 ng/mL
concentration at 6 h [2, 11]: 317 ng/mL
concentration at 2 min [2, 12]: 36600 ng/mL
concentration at 5 min [2, 12]: 5230 ng/mL
concentration at 10 min [2, 12]: 3280 ng/mL
concentration at 20 min [2, 12]: 1800 ng/mL
concentration at 0.5 h [2, 12]: 1340 ng/mL
concentration at 0.75 h [2, 12]: 859 ng/mL
concentration at 1 h [2, 12]: 690 ng/mL
concentration at 1.5 h [2, 12]: 501 ng/mL
concentration at 2 h [2, 12]: 377 ng/mL
concentration at 4 h [2, 12]: 129 ng/mL
concentration at 5 h [2, 12]: 107 ng/mL
concentration at 6 h [2, 12]: 92 ng/mL
concentration at 2 min [2, 13]: 32900 ng/mL
concentration at 5 min [2, 13]: 7160 ng/mL
concentration at 10 min [2, 13]: 4610 ng/mL
concentration at 20 min [2, 13]: 2710 ng/mL
concentration at 0.5 h [2, 13]: 1880 ng/mL
concentration at 0.75 h [2, 13]: 1400 ng/mL
concentration at 1 h [2, 13]: 1080 ng/mL
concentration at 1.5 h [2, 13]: 885 ng/mL
concentration at 2 h [2, 13]: 733 ng/mL
concentration at 4 h [2, 13]: 337 ng/mL
concentration at 5 h [2, 13]: 211 ng/mL
concentration at 6 h [2, 13]: 204 ng/mL
concentration at 10 min [2, 14]: 1390 ng/mL
concentration at 20 min [2, 14]: 2080 ng/mL
concentration at 0.5 h [2, 14]: 1940 ng/mL
concentration at 0.75 h [2, 14]: 1890 ng/mL
concentration at 1 h [2, 14]: 2220 ng/mL
concentration at 1.5 h [2, 14]: 1270 ng/mL
concentration at 2 h [2, 14]: 774 ng/mL
concentration at 3 h [2, 14]: 663 ng/mL
concentration at 4 h [2, 14]: 812 ng/mL
concentration at 5 h [2, 14]: 51 ng/mL
concentration at 6 h [2, 14]: 118 ng/mL
concentration at 10 min [2, 15]: 15 ng/mL
concentration at 20 min [2, 15]: 17 ng/mL
concentration at 0.5 h [2, 15]: 105 ng/mL
concentration at 0.75 h [2, 15]: 558 ng/mL
concentration at 1 h [2, 15]: 1310 ng/mL
concentration at 1.5 h [2, 15]: 935 ng/mL
concentration at 2 h [2, 15]: 730 ng/mL
concentration at 3 h [2, 15]: 616 ng/mL
concentration at 4 h [2, 15]: 318 ng/mL
concentration at 5 h [2, 15]: 222 ng/mL
concentration at 6 h [2, 15]: 153 ng/mL
concentration at 10 min [2, 16]: 702 ng/mL
concentration at 20 min [2, 16]: 1050 ng/mL
concentration at 0.5 h [2, 16]: 1020 ng/mL
concentration at 0.75 h [2, 16]: 1220 ng/mL
concentration at 1 h [2, 16]: 1760 ng/mL
concentration at 1.5 h [2, 16]: 1100 ng/mL
concentration at 2 h [2, 16]: 752 ng/mL
concentration at 3 h [2, 16]: 640 ng/mL
concentration at 4 h [2, 16]: 565 ng/mL
concentration at 5 h [2, 16]: 136 ng/mL
concentration at 6 h [2, 16]: 135 ng/mL
bioavailability ([2]; dog, blood, dogs, read-out: Bioavailability): 61%
half-life ([2]; dog, blood, dogs, read-out: Elimination Half-life, Average + (error)): 1.63 h
elimination half-life in dogs compared with rats ([2]; dogs vs rats, intravenous): twice longer or more than that in rats
bioavailability ([2]; dogs): 61 (15) %
SMILES: CN(C(=O)[C@H](Cc1ccc(C(=N)NN)cc1)NS(=O)(=O)c1ccc2ccccc2c1)C1CCCC1 [Example 1, (S)-N-cyclopentyl-N-methyl-3-(4-amidrazonophenyl)-2-(2-naphthylsulfonylamino)propionamide]
distribution and disappearance after intravenous injection ([1]; rats, intravenous): rapidly distributed and then slowly disappeared
elimination half-life in dogs compared with argatroban in human being ([2]; dogs vs argatroban (40 minutes) in human being): twice longer or more than that of commercially available argatroban
distribution and disappearance after intravenous injection ([2]; dogs, intravenous): rapidly distributed and then slowly disappeared
pharmacokinetic characteristics compared with argatroban ([2]; oral absorption and elimination half-life): better pharmacokinetic characteristics than argatroban
